Molecules are shown by their SMILES. Where only a bound is given, the exact number is not on record here.

This assay concerns the target cAMP-specific 3',5'-cyclic phosphodiesterase 4A (Homo sapiens, UniProt P27815). Put plainly: PDE4A Inhibition Assay. On the procedure:
Inhibition of PDE4A was performed using IMAP technology (Molecular Devices, CA). PDE4A1A mixture was dispensed into 1536-well black/solid bottom assay plates (Greiner Bio-One North America, NC) using a Flying Reagent Dispenser (Aurora Discovery, CA). The plates were centrifuged at 1000 rpm for 30s and compound was transferred to the assay plate using a Kalypsys pin tool. After incubation, cAMP was dispensed into the plates to initiate the reaction. IMAP binding reagent was then added to the assay plate after the reaction.

Chain of cAMP-specific 3',5'-cyclic phosphodiesterase 4A (P27815 whole entry): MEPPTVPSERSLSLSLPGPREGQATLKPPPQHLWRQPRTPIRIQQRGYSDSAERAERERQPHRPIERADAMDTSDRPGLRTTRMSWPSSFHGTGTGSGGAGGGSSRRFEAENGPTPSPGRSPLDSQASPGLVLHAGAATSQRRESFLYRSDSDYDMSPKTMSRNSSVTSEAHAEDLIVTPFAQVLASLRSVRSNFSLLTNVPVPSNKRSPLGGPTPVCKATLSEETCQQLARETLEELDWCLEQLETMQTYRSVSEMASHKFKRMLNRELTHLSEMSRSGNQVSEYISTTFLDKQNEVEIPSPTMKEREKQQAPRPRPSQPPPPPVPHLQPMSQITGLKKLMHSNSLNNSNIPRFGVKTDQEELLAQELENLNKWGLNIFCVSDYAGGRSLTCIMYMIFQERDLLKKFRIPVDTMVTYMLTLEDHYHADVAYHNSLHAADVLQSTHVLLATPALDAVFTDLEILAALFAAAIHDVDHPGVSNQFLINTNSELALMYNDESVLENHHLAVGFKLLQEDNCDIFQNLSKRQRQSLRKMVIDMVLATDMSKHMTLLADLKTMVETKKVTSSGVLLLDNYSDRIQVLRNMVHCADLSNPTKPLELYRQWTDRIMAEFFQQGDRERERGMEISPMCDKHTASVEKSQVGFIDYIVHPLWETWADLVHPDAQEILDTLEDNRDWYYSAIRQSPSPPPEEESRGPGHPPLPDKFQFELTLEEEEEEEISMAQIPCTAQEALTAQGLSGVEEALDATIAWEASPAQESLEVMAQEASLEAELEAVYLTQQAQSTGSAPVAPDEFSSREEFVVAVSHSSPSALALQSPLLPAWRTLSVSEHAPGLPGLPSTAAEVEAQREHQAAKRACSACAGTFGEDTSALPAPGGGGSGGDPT

In turn, `COc1ccc(C2=Nn3c(nnc3-c3ccc(OC)cc3)SC2)cc1` displayed an IC50 of 8.4 µM.
In turn, `COc1cccc(-c2nnc3n2N=C(c2cc(OC)ccc2OC)CS3)c1` came in with an IC50 of 12.6 µM.
As for `COc1cccc(-c2nnc3n2N=C(c2ccc(OC)c(OC)c2)CS3)c1` [triazolothiadiazine, 5B], the IC50 (pH 7.2, 22 °C) was found to be 0.126 µM.
As for `COc1ccc(-c2nnc3n2N=C(c2ccc(OC)c(OC)c2)CS3)cc1` [triazolothiadiazine, 5C], the half-inhibitory concentration (IC50) (pH 7.2, 22 °C) is 0.0889 µM.
The same measure, in the same setting: then `COc1ccc(-c2nnc3n2N=C(c2ccc(OC)c(OC)c2)CS3)c(OC)c1` [triazolothiadiazine, 5E], with 0.079 µM; and `COc1ccc(C2=Nn3c(nnc3-c3ccc(OC)c(OC)c3)SC2)cc1OC` [triazolothiadiazine, 5G], with 0.177 µM.
Turning to `COc1cc(OC)cc(-c2nnc3n2N=C(c2ccc(OC)c(OC)c2)CS3)c1` [triazolothiadiazine, 5H], where the note is “pH 7.2, 22 °C”, the half-maximal inhibitory concentration (IC50) worked out at 0.05 µM.
Still for that read-out and setting: in the case of `COc1ccccc1C1=Nn2c(nnc2-c2ccccc2OC)SC1` [triazolothiadiazine, 6A] it was 20 µM; in that of `COc1cccc(-c2nnc3n2N=C(c2ccccc2OC)CS3)c1` [triazolothiadiazine, 6B], 13.4 µM.
On the same count and under the same terms, then `COc1ccc(-c2nnc3n2N=C(c2ccccc2OC)CS3)cc1` [triazolothiadiazine, 6C], with 14.1 µM; and `COc1ccccc1C1=Nn2c(nnc2-c2cccc(OC)c2OC)SC1` [triazolothiadiazine, 6D], with more than 20 µM.
On the same count and under the same terms, then `COc1ccc(-c2nnc3n2N=C(c2ccccc2OC)CS3)c(OC)c1` [triazolothiadiazine, 6E], with 19.7 µM; and `COc1ccc(OC)c(-c2nnc3n2N=C(c2ccccc2OC)CS3)c1` [triazolothiadiazine, 6F], with 19.6 µM; and `COc1ccc(-c2nnc3n2N=C(c2ccccc2OC)CS3)cc1OC` [triazolothiadiazine, 6G], with 8.9 µM.
Molecule `COc1cc(OC)cc(-c2nnc3n2N=C(c2ccccc2OC)CS3)c1` [triazolothiadiazine, 6H] displayed an IC50 (pH 7.2, 22 °C) of 13.4 µM.
On the same count and under the same terms, in the case of `COc1ccccc1C1=Nn2c(nnc2-c2ccccc2C)SC1` [triazolothiadiazine, 6I] it was 14.1 µM.
The same measure, in the same setting: in the case of `CCOc1ccccc1-c1nnc2n1N=C(c1ccccc1OC)CS2` [triazolothiadiazine, 6J] it was more than 20 µM.
Turning to `COc1ccccc1C1=Nn2c(nnc2-c2ccccc2O)SC1` [triazolothiadiazine, 6K], the IC50 (pH 7.2, 22 °C) was more than 20 µM.
Same read-out and setting: in the case of `COc1cccc(C2=Nn3c(nnc3-c3ccccc3OC)SC2)c1` [triazolothiadiazine, 7A] it was 12 µM.
On the same count and under the same terms, in the case of `COc1cccc(C2=Nn3c(nnc3-c3cccc(OC)c3)SC2)c1` [triazolothiadiazine, 7B] it was 12.6 µM; in that of `COc1ccc(-c2nnc3n2N=C(c2cccc(OC)c2)CS3)cc1` [triazolothiadiazine, 7C], 8.4 µM; in that of `COc1cccc(C2=Nn3c(nnc3-c3cccc(OC)c3OC)SC2)c1` [triazolothiadiazine, 7D], more than 20 µM.
The same measure, in the same setting: in the case of `COc1cccc(C2=Nn3c(nnc3-c3ccc(OC)cc3OC)SC2)c1` [triazolothiadiazine, 7E] it was 13.4 µM; in that of `COc1cccc(C2=Nn3c(nnc3-c3cc(OC)ccc3OC)SC2)c1` [triazolothiadiazine, 7F], 8 µM; in that of `COc1cccc(C2=Nn3c(nnc3-c3ccc(OC)c(OC)c3)SC2)c1` [triazolothiadiazine, 7G], 9 µM.
Regarding `COc1cccc(C2=Nn3c(nnc3-c3cc(OC)cc(OC)c3)SC2)c1` [triazolothiadiazine, 7H], under “pH 7.2, 22 °C”, half-maximal inhibition (IC50) required 13.4 µM.
In turn, `COc1cccc(C2=Nn3c(nnc3-c3ccccc3C)SC2)c1` [triazolothiadiazine, 7I] registered an IC50 of 3.2 µM.
Same read-out and setting: then `CCOc1ccccc1-c1nnc2n1N=C(c1cccc(OC)c1)CS2` [triazolothiadiazine, 7J], with 11.2 µM.
In turn, `COc1cccc(C2=Nn3c(nnc3-c3ccccc3O)SC2)c1` [triazolothiadiazine, 7K] returned a 50% inhibitory concentration (IC50) of 14.1 µM.
Still for that read-out and setting: in the case of `COc1ccc(C2=Nn3c(nnc3-c3ccccc3OC)SC2)cc1` [triazolothiadiazine, 8A] it was more than 20 µM; in that of `COc1ccc(C2=Nn3c(nnc3-c3cccc(OC)c3)SC2)cc1` [triazolothiadiazine, 8B], 12.6 µM.
Still for that read-out and setting: in the case of `COc1ccc(C2=Nn3c(nnc3-c3cccc(OC)c3OC)SC2)cc1` [triazolothiadiazine, 8D] it was more than 20 µM; in that of `COc1ccc(C2=Nn3c(nnc3-c3ccc(OC)cc3OC)SC2)cc1` [triazolothiadiazine, 8E], more than 20 µM; in that of `COc1ccc(C2=Nn3c(nnc3-c3cc(OC)ccc3OC)SC2)cc1` [triazolothiadiazine, 8F], 1.7 µM.
Same read-out and setting: then `COc1ccc(C2=Nn3c(nnc3-c3ccc(OC)c(OC)c3)SC2)cc1` [triazolothiadiazine, 8G], with 7.5 µM.
`COc1ccc(C2=Nn3c(nnc3-c3cc(OC)cc(OC)c3)SC2)cc1` [triazolothiadiazine, 8H]: it took 9.5 µM to reach half-maximal inhibition (IC50).
The same measure, in the same setting: in the case of `COc1ccc(C2=Nn3c(nnc3-c3ccccc3C)SC2)cc1` [triazolothiadiazine, 8I] it was 12.5 µM; in that of `CCOc1ccccc1-c1nnc2n1N=C(c1ccc(OC)cc1)CS2` [triazolothiadiazine, 8J], 4.5 µM; in that of `COc1ccc(C2=Nn3c(nnc3-c3ccccc3O)SC2)cc1` [triazolothiadiazine, 8K], 8.4 µM.
The same measure, in the same setting: in the case of `COc1ccc(C2=Nn3c(nnc3-c3ccccc3OC)SC2)c(OC)c1` [triazolothiadiazine, 9A] it was 15 µM; in that of `COc1cccc(-c2nnc3n2N=C(c2ccc(OC)cc2OC)CS3)c1` [triazolothiadiazine, 9B], 14.1 µM.
Same read-out and setting: then `COc1ccc(-c2nnc3n2N=C(c2ccc(OC)cc2OC)CS3)cc1` [triazolothiadiazine, 9C], with 13.4 µM; and `COc1ccc(C2=Nn3c(nnc3-c3cccc(OC)c3OC)SC2)c(OC)c1` [triazolothiadiazine, 9D], with more than 20 µM; and `COc1ccc(C2=Nn3c(nnc3-c3ccc(OC)cc3OC)SC2)c(OC)c1` [triazolothiadiazine, 9E], with more than 20 µM.
On to `COc1ccc(C2=Nn3c(nnc3-c3cc(OC)ccc3OC)SC2)c(OC)c1` [triazolothiadiazine, 9F], for which the 50% inhibitory concentration (IC50) was determined as 7.5 µM.
For `COc1ccc(C2=Nn3c(nnc3-c3ccc(OC)c(OC)c3)SC2)c(OC)c1` [triazolothiadiazine, 9G], the half-inhibitory concentration (IC50) was found to be 6.7 µM.
The same measure, in the same setting: then `COc1cc(OC)cc(-c2nnc3n2N=C(c2ccc(OC)cc2OC)CS3)c1` [triazolothiadiazine, 9H], with more than 20 µM; and `COc1ccc(C2=Nn3c(nnc3-c3ccccc3C)SC2)c(OC)c1` [triazolothiadiazine, 9I], with more than 20 µM.
Take `CCOc1ccccc1-c1nnc2n1N=C(c1ccc(OC)cc1OC)CS2` [triazolothiadiazine, 9J]: the 50% inhibitory concentration (IC50) is more than 20 µM.
On the same count and under the same terms, in the case of `COc1ccc(C2=Nn3c(nnc3-c3ccccc3O)SC2)c(OC)c1` [triazolothiadiazine, 9K] it was more than 20 µM.
On the same count and under the same terms, then `COc1ccc(OC)c(C2=Nn3c(nnc3-c3ccccc3OC)SC2)c1` [triazolothiadiazine, 10A], with 8.9 µM; and `COc1ccc(-c2nnc3n2N=C(c2cc(OC)ccc2OC)CS3)cc1` [triazolothiadiazine, 10C], with 10.1 µM.
Same read-out and setting: then `COc1ccc(OC)c(C2=Nn3c(nnc3-c3cccc(OC)c3OC)SC2)c1` [triazolothiadiazine, 10D], with 11.9 µM.
The molecule `COc1ccc(-c2nnc3n2N=C(c2cc(OC)ccc2OC)CS3)c(OC)c1` [triazolothiadiazine, 10E] gave a half-maximal inhibitory concentration (IC50) of 5.3 µM.
`COc1ccc(OC)c(C2=Nn3c(nnc3-c3cc(OC)ccc3OC)SC2)c1` [triazolothiadiazine, 10F]: it took 11.9 µM to reach half-maximal inhibition (IC50).
On the same count and under the same terms, then `COc1ccc(OC)c(C2=Nn3c(nnc3-c3ccc(OC)c(OC)c3)SC2)c1` [triazolothiadiazine, 10G], with 6.9 µM; and `COc1cc(OC)cc(-c2nnc3n2N=C(c2cc(OC)ccc2OC)CS3)c1` [triazolothiadiazine, 10H], with 12.7 µM.
Still for that read-out and setting: in the case of `COc1ccc(OC)c(C2=Nn3c(nnc3-c3ccccc3C)SC2)c1` [triazolothiadiazine, 10I] it was 6.3 µM; in that of `CCOc1ccccc1-c1nnc2n1N=C(c1cc(OC)ccc1OC)CS2` [triazolothiadiazine, 10J], 13.4 µM.
Same read-out and setting: then `COc1ccc(OC)c(C2=Nn3c(nnc3-c3ccccc3O)SC2)c1` [triazolothiadiazine, 10K], with more than 20 µM; and `COc1ccccc1-c1nnc2n1N=C(c1c(OC)cccc1OC)CS2` [triazolothiadiazine, 11A], with more than 20 µM.
`COc1cccc(-c2nnc3n2N=C(c2c(OC)cccc2OC)CS3)c1` [triazolothiadiazine, 11B] registered an IC50 of more than 20 µM.
The same measure, in the same setting: then `COc1ccc(-c2nnc3n2N=C(c2c(OC)cccc2OC)CS3)cc1` [triazolothiadiazine, 11C], with 19.7 µM; and `COc1cccc(-c2nnc3n2N=C(c2c(OC)cccc2OC)CS3)c1OC` [triazolothiadiazine, 11D], with more than 20 µM; and `COc1ccc(-c2nnc3n2N=C(c2c(OC)cccc2OC)CS3)c(OC)c1` [triazolothiadiazine, 11E], with more than 20 µM.
Same read-out and setting: in the case of `COc1ccc(OC)c(-c2nnc3n2N=C(c2c(OC)cccc2OC)CS3)c1` [triazolothiadiazine, 11F] it was more than 20 µM; in that of `COc1ccc(-c2nnc3n2N=C(c2c(OC)cccc2OC)CS3)cc1OC` [triazolothiadiazine, 11G], 14.1 µM; in that of `COc1cc(OC)cc(-c2nnc3n2N=C(c2c(OC)cccc2OC)CS3)c1` [triazolothiadiazine, 11H], 19.6 µM.
For `COc1cccc(OC)c1C1=Nn2c(nnc2-c2ccccc2C)SC1` [triazolothiadiazine, 11I], the half-maximal inhibitory concentration (IC50) is 14.1 µM.
The same measure, in the same setting: then `CCOc1ccccc1-c1nnc2n1N=C(c1c(OC)cccc1OC)CS2` [triazolothiadiazine, 11J], with more than 20 µM.

The term IC50 denotes the concentration at which inhibition is half-maximal. Read a low IC50 as higher potency.

For the origin of these results see BindingDB's records for doi:10.1016/j.bmcl.2008.01.028 (Nih, 2008).
